Reference: US12551482B2, “Aurora kinase inhibitors” (The Regents of the University of California, priority 2013, dated 2026)
Read-outs that look alike come from different tables or passages of the source.

What was measured:
Hs, 766T = test: Cancer cell line profiling, Genomics of Drug Sensitivity Project; details: Hs766T, read-out: CD532 EC50 (uM)
A253 = test: as above; details: Homo sapiens, A253, read-out: CD532 EC50 (uM)
LS-123 = test: as above; details: Homo sapiens, LS-123, read-out: CD532 EC50 (uM)
JHH-6 = test: as above; details: read-out: CD532 EC50 (uM)
OSC-19 = test: as above; details: OSC19, read-out: CD532 EC50 (uM)
DJM-1 = test: as above; details: read-out: CD532 EC50 (uM)
MMAC-SF = test: as above; details: read-out: CD532 EC50 (uM)
MKN45 = test: as above
HN = test: as above; format: cell-based; details: read-out: CD532 EC50 (uM), Head & Neck
SNU-81 = test: as above; details: read-out: CD532 EC50 (uM)
RL95-2 = test: as above; details: Homo sapiens, RL95-2, read-out: CD532 EC50 (uM)
SCH = test: as above; details: read-out: CD532 EC50 (uM)
c-MYC = c-MYC protein by immunoblot in c-MYC expressing cancer cell lines; format: cell-based
IGR-37 = test: Cancer cell line profiling, Genomics of Drug Sensitivity Project; details: Homo sapiens, IGR-37, read-out: CD532 EC50 (uM)

O=C(Nc1ccc(Nc2nccc(Nc3cc(C4CCCC4)[nH]n3)n2)cc1)Nc1cccc(C(F)(F)F)c1 [CD532, 1-(4-((4-((5-cyclopentyl-1H-pyrazol-3-yl)amino)pyrimidin-2-yl)amino)phenyl)-3-(3-(trifluoromethyl)phenyl)urea]
EC50 (Hs, 766T): 2.45 µM
EC50 (A253): 24.5 µM
EC50 (LS-123): 0.861 µM
EC50 (JHH-6): 1.24 µM
EC50 (OSC-19): 1.18 µM
EC50 (DJM-1): 0.427 µM
EC50 (MMAC-SF): 0.566 µM
EC50 (MKN45; Homo sapiens, MKN-45, read-out: CD532 EC50 (uM), MKN45 cell line, Stomach): 0.456 µM
EC50 (MKN45; read-out: CD532 EC50, MKN45 cell line, Stomach): 0.26 µM
EC50 (HN): 1.63 µM
EC50 (SNU-81): 0.421 µM
EC50 (RL95-2): 0.335 µM
EC50 (SCH): 1.24 µM
c-MYC protein (c-MYC; RKO colon cancer cell line): effects loss of c-MYC protein
c-MYC protein (c-MYC; SUM142 breast cancer cell line): effects loss of c-MYC protein
c-Myc protein (c-MYC; SUM149 (ER−/PR−) breast cancer cell line): loss of c-Myc
c-MYC protein (c-MYC; c-MYC-translocated ML-60 leukemia cell line): effects loss of c-MYC protein
EC50 (IGR-37): 0.547 µM
